Laboratory results taken from US11168069B2, “Heterocyclylsulfonyl-substituted pyridines and their use in the treatment of cancer” (Oblique Therapeutics AB, priority 2017, dated 2021).

Experiments:
[1] = molecular target: recombinant thioredoxin reductase 1 (TrxR1) (Homo sapiens (Human), UniProt Q16881); test: Inhibition of recombinant TrxR1 (DTNB assay); type: biochemical; details: 30 nM TrxR1, 250 μM NADPH, 15 minutes incubation, O.D. 412 nm, read-out: TrxR Assay IC50
Procedure: (§1) Small molecule inhibition of recombinant thioredoxin reductase 1 (TrxR1) and gluthathione reductase (GR) was examined in 96-well plate format. 30 nM TrxR1 was incubated in the presence of 250 μM NADPH, 0.1 mg/ml BSA, and various concentrations of compound (1% DMSO final) in 50 mM Tris (pH 7.5) and 2 mM EDTA buffer for 15 minutes. Following the incubation period, 2 mM DTNB was added to each well and the change in O.D. at 412 nm was followed. Percent activity was determined using DMSO vehicle and no TrxR1 (blank) controls. 2 nM GR was incubated in the presence of 250 μM NADPH, 0.1 mg/ml BSA, and various concentrations of compounds (1% DMSO final) in 50 mM Tris (pH 7.5) and 2 mM EDTA buffer for 15 minutes. Following the incubation period, 1 mM GSSG was added to each well and the change in O.D. at 340 nm was followed. Percent activity was determined using DMSO vehicle and no GR (blank) controls.

U-87 MG = test: Cancer cell viability assay (MTT), U-87 MG; type: cell-based; details: Homo sapiens, 72 hrs, 10% FBS media
Procedure: (§2) Breast cancer and glioblastoma cell lines were plated 4000 cells/well in 96-well plates in the presence of 10% FBS media. The following day cells were treated with various concentrations of example compounds (0.1% DMSO final) and incubated for 72 hrs. After the incubation An MTT assay was performed to access cell viability. Percent of viability was determined using DMSO vehicle and no cell (blank) controls.

[2] = molecular target: recombinant gluthathione reductase (GR) (Homo sapiens (Human), UniProt P00390); test: Inhibition of recombinant GR (GSSG assay); type: biochemical; details: 2 nM GR, 250 μM NADPH, 15 minutes incubation, O.D. 340 nm
Procedure: as §1

MDA-MB-468 = test: Cancer cell viability assay (MTT), MDA-MB-468; type: cell-based; details: Homo sapiens, 72 hrs, 10% FBS media
Procedure: as §2

MDA-MB-231 cells = test: Breast cancer cell viability assay (Alamar Blue); type: cell-based; details: Homo sapiens, 72 hrs, 10% FBS media containing 25 nM selenite
Procedure: MDA-MB-231 cells were plated 2000 cells/well in 96-well black optical plates in the presence of 10% FBS media containing 25 nM selenite. The following day cells were treated with various concentrations of compounds (0.1% DMSO final) and incubated for 72 hrs. After the incubation Alamar Blue reagent was added to each well and incubated for additional 3 hrs. Fluorescence was read ex:530 nm/em:590 nm, and percent of viability was determined using DMSO vehicle and no cell (blank) controls.

MDA-MB-231 = test: Cancer cell viability assay (MTT), MDA-MB-231; type: cell-based; details: Homo sapiens, 72 hrs, 10% FBS media
Procedure: as §2

Sequence of recombinant thioredoxin reductase 1 (TrxR1) (Q16881 151-649): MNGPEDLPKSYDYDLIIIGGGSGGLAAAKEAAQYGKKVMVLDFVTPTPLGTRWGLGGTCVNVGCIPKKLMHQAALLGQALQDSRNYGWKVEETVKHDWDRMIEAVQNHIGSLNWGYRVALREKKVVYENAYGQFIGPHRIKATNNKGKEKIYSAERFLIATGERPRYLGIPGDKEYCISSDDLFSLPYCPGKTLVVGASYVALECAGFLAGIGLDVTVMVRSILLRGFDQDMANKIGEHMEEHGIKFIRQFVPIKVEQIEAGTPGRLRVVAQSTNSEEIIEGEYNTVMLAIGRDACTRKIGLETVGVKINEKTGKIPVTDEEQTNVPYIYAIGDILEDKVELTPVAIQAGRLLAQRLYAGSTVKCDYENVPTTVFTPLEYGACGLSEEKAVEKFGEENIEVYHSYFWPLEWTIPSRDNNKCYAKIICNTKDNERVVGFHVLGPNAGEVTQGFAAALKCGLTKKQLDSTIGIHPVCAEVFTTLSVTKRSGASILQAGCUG
Sequence of recombinant gluthathione reductase (GR) (P00390 44-522): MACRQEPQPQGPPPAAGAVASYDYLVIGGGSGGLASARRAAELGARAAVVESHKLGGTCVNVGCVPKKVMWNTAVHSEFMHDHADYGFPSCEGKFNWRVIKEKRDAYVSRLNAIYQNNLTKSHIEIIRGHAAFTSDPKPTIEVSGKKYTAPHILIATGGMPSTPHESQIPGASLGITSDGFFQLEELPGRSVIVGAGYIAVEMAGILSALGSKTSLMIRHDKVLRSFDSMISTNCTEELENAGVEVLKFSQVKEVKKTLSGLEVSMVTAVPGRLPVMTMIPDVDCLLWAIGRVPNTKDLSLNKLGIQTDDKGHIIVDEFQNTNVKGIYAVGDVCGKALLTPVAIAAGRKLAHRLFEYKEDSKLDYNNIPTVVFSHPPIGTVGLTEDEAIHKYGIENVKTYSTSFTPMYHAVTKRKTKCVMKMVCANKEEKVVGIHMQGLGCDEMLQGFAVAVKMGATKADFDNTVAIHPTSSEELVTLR

Row | SMILES | IC50 [1] | IC50 (U-87 MG) | IC50 [2] | IC50 (MDA-MB-468) | IC50 (MDA-MB-231 cells) | IC50 (MDA-MB-231)
1 | COc1ccc([N+](=O)[O-])c(S(=O)(=O)C2CCOCC2)n1 [Example 3, 6-methoxy-3-nitro-2-((tetrahydro-2H-pyran-4-yl)sulfonyl)pyridine] | 0.0391 µM | 6.11 µM | > 100 µM | 4.34 µM | 5.08 µM | 7.53 µM
2 | COc1ccc([N+](=O)[O-])c(S(=O)(=O)C2CCOC2C)n1 (stereo not shown) [Example 1] | 0.093 µM | 8.89 µM | > 100 µM | 4.14 µM | 4.53 µM | 8.94 µM
3 | COc1ccc([N+](=O)[O-])c([S+]([O-])C2CCOC2C)n1 (stereo not shown) [Example 4, 6-Methoxy-2-(2-methyl-tetrahydro-furan-3-ylsulfinyl)-3-nitro-pyridine] | 1.01 µM | 9.27 µM | > 100 µM | 2.1 µM |  | 3.54 µM
4 | COc1ccc([N+](=O)[O-])c(S(=O)(=O)C2CCN(C(C)=O)CC2)n1 [Example 2, 1-(4-((6-methoxy-3-nitropyridin-2-yl)sulfonyl)piperidin-1-yl)ethan-1-one] | 0.391 µM | 10.6 µM | > 100 µM | 4 µM | 12.3 µM | 9.97 µM
5 | COc1ccc([N+](=O)[O-])c([S+]([O-])C2CCN(C(C)=O)CC2)n1 (stereo not shown) [Example 6, 1-[4-(6-Methoxy-3-nitro-pyridin-2-ylsulfinyl)-piperidin-1-yl]-ethanone] | 4.06 µM |  | > 100 µM | 5.58 µM |  | 11.6 µM
6 | COc1ccc([N+](=O)[O-])c([S+]([O-])C2CCOCC2)n1 (stereo not shown) [Example 5, 6-Methoxy-3-nitro-2-(tetrahydro-pyran-4-ylsulfinyl)-pyridine] | 4.33 µM |  | > 100 µM | 2.4 µM |  | 3.57 µM
